≈ marks a conversion by molar mass, not a printed value. Like-named read-outs stand apart in the source and are kept apart here.
How the values were obtained:
Format in all cases: cell-based
Pseudomonas aeruginosa = assay: MIC, dilutions in liquid medium, alone and combined with NXL105; settings: Pseudomonas aeruginosa
Method: (§1) In vitro activity, method of dilutions in liquid medium:
A series of test 96-well microtiter plates are prepared in which the same quantity of sterile nutritive medium is distributed. Increasing quantities of the compound to be studied, namely the antibacterial compound alone and the inventive combination with the compound of formula (I) of example 1, are distributed in each plate in the respective proportions 2:1 and 4:1, and then each plate is inoculated with a bacterial strain of Pseudomonas aeruginosa. After 24 h of incubation in a 37° C. oven, growth inhibition is evaluated by transillumination, which makes it possible to determine the minimum inhibitory concentrations (MICS) expressed in μg/ml.

E. coli = assay: microbe, parasite or virus in culture; settings: Escherichia coli
Method: as §1
(§2) A series of test 96-well microtiter plates are prepared in which the same quantity of sterile nutritive medium is distributed. […] After 24 h of incubation in a 37° C. oven, growth inhibition is evaluated by transillumination, which makes it possible to determine the minimum inhibitory concentrations (MICS) expressed in μg/ml.

E. cloacae = assay: MIC, dilutions in liquid medium, alone and combined with NXL105; settings: Enterobacter cloacae
Method: as §1, §2

K. pneumoniae = assay: as above
Method: as §1, §2

K. oxytoca = assay: as above; settings: Klebsiella oxytoca, read-out: MIC
C. freundii = assay: as above; settings: Citrobacter freundii

## C[C@@H](O)[C@H]1C(=O)N2C(C(=O)O)=C(S[C@@H]3CN[C@H](C(=O)N(C)C)C3)[C@H](C)[C@H]12 [Meropenem]
Pseudomonas aeruginosa; ATCC27853, P. aeruginosa ATCC 27853
  MIC: 1 µg/mL
Pseudomonas aeruginosa; P. aeruginosa 391HG2
  MIC: > 32 µg/mL
Pseudomonas aeruginosa; P. aeruginosa 391HG21
  MIC: > 32 µg/mL
Pseudomonas aeruginosa; P. aeruginosa 391HG38
  MIC: 32 µg/mL
Pseudomonas aeruginosa; P. aeruginosa 391HG39
  MIC: 0.06 µg/mL
Pseudomonas aeruginosa; P. aeruginosa 391HG58
  MIC: 32 µg/mL
Pseudomonas aeruginosa; P. aeruginosa 391HG118
  MIC: 8 µg/mL
Pseudomonas aeruginosa; P. aeruginosa 391HG123
  MIC: 32 µg/mL
Pseudomonas aeruginosa; P. aeruginosa 391HG158
  MIC: 32 µg/mL
Pseudomonas aeruginosa; P. aeruginosa 391HG271
  MIC: > 32 µg/mL
Pseudomonas aeruginosa; P. aeruginosa 391HG329
  MIC: > 32 µg/mL
Pseudomonas aeruginosa; P. aeruginosa 391K767
  MIC: 2 µg/mL
Pseudomonas aeruginosa; P. aeruginosa 391K1455
  MIC: 4 µg/mL
Pseudomonas aeruginosa; P. aeruginosa 391K1523
  MIC: 2 µg/mL
Pseudomonas aeruginosa; P. aeruginosa 391K1525
  MIC: 2 µg/mL
Pseudomonas aeruginosa; P. aeruginosa 391K1536
  MIC: 2 µg/mL
Pseudomonas aeruginosa; P. aeruginosa 391K2376
  MIC: 2 µg/mL
Pseudomonas aeruginosa; P. aeruginosa 391K2379
  MIC: 4 µg/mL
Pseudomonas aeruginosa; P. aeruginosa 391K2415
  MIC: 2 µg/mL
Pseudomonas aeruginosa; P. aeruginosa 391KB9
  MIC: 4 µg/mL
Pseudomonas aeruginosa; P. aeruginosa 391KB14
  MIC: 8 µg/mL
Pseudomonas aeruginosa; P. aeruginosa 391KB21
  MIC: 8 µg/mL
Pseudomonas aeruginosa; P. aeruginosa 391KB33
  MIC: 4 µg/mL
Pseudomonas aeruginosa; P. aeruginosa 391KB38
  MIC: 8 µg/mL
Pseudomonas aeruginosa; P. aeruginosa 391KB62
  MIC: > 32 µg/mL
Pseudomonas aeruginosa; P. aeruginosa 391KB68
  MIC: 1 µg/mL
Pseudomonas aeruginosa; P. aeruginosa 391KB90
  MIC: 16 µg/mL
Pseudomonas aeruginosa; P. aeruginosa 391KB91
  MIC: 16 µg/mL
Pseudomonas aeruginosa; P. aeruginosa 391KB99
  MIC: 16 µg/mL
Pseudomonas aeruginosa; P. aeruginosa 391KB103
  MIC: 8 µg/mL
Pseudomonas aeruginosa; P. aeruginosa 391KB105
  MIC: 4 µg/mL
Pseudomonas aeruginosa; P. aeruginosa 391KB106
  MIC: 4 µg/mL
Pseudomonas aeruginosa; P. aeruginosa 391KB107
  MIC: 32 µg/mL
Pseudomonas aeruginosa; P. aeruginosa 391KB114
  MIC: 16 µg/mL
Pseudomonas aeruginosa; P. aeruginosa 391KB127
  MIC: 2 µg/mL
Pseudomonas aeruginosa; P. aeruginosa 391KB135
  MIC: > 32 µg/mL
Pseudomonas aeruginosa; P. aeruginosa 391KB136
  MIC: > 32 µg/mL
Pseudomonas aeruginosa; P. aeruginosa 391KB137
  MIC: > 32 µg/mL
Pseudomonas aeruginosa; P. aeruginosa 391KB138
  MIC: > 32 µg/mL
Pseudomonas aeruginosa; P. aeruginosa 391KB139
  MIC: > 32 µg/mL
Pseudomonas aeruginosa; P. aeruginosa 391KB140
  MIC: 16 µg/mL
Pseudomonas aeruginosa; P. aeruginosa 391KB141
  MIC: > 32 µg/mL
Pseudomonas aeruginosa; P. aeruginosa 391KB142
  MIC: > 32 µg/mL
Pseudomonas aeruginosa; P. aeruginosa 391KB143
  MIC: > 32 µg/mL
Pseudomonas aeruginosa; P. aeruginosa 391KB144
  MIC: > 32 µg/mL
Pseudomonas aeruginosa; P. aeruginosa 391QBR2
  MIC: > 32 µg/mL
Pseudomonas aeruginosa; P. aeruginosa 391QBR3
  MIC: 32 µg/mL
Pseudomonas aeruginosa; P. aeruginosa 391QBR4
  MIC: 16 µg/mL
Pseudomonas aeruginosa; P. aeruginosa 391QBR5
  MIC: 32 µg/mL
Pseudomonas aeruginosa; P. aeruginosa 391QBR7
  MIC: 32 µg/mL
Pseudomonas aeruginosa; P. aeruginosa 391QBR8
  MIC: 16 µg/mL
Pseudomonas aeruginosa; P. aeruginosa 391QBR9
  MIC: 16 µg/mL
Pseudomonas aeruginosa; P. aeruginosa 391QBR10
  MIC: 4 µg/mL
Pseudomonas aeruginosa; P. aeruginosa C3719
  MIC: > 32 µg/mL
Pseudomonas aeruginosa; P. aeruginosa PA2192
  MIC: 8 µg/mL
E. coli; 24 h, E. coli 2138, KPC-2 + TEM-1
  MIC: 8 µg/mL
E. coli; 24 h, E. coli (no alias), CTX-M-15 + TEM-1 + OXA-1
  MIC: ≤ 0.03 µg/mL
E. coli; 24 h, E. coli IND, VEB-1 + CMY-2
  MIC: 0.06 µg/mL
E. coli; 24 h, E. coli TN06, CTX-M-2 + TEM-1
  MIC: 0.06 µg/mL
E. coli; 24 h, E. coli TN13, CTX-M-14 + CMY-2 + TEM-1
  MIC: 0.25 µg/mL
E. coli; 24 h, E. coli Tunisie clone E4, CTX-M-16 + TEM-1
  MIC: 0.125 µg/mL
E. coli; E. coli (no alias), Cephalosporinase, read-out: MIC
  MIC: 0.06 µg/mL (≈ 0.156 µM)
E. coli; E. coli (no alias), SHV-4
  MIC: ≤ 0.03 µg/mL
E. coli; E. coli (no alias), TEM-3
  MIC: ≤ 0.03 µg/mL
E. cloacae
  MIC: 0.125 µg/mL
E. cloacae; 24 h, E. cloacae 7506, KPC-2 + TEM-1 + KLUC-2, read-out: MIC
  MIC: 16 µg/mL
E. cloacae; E. cloacae (no alias), AmpC, read-out: MIC
  MIC: 0.5 µg/mL
K. pneumoniae; K. pneumoniae 236, SHV-5 + TEM-10
  MIC: 0.125 µg/mL
K. pneumoniae; K. pneumoniae 444, SHV-5 + TEM-2 + PER
  MIC: 0.125 µg/mL
K. pneumoniae; K. pneumoniae 1734, FOX-3 + TEM-1
  MIC: 0.125 µg/mL
K. pneumoniae; K. pneumoniae 9701, CMY-4 + TEM-1
  MIC: 0.125 µg/mL
K. pneumoniae; K. pneumoniae Tunisie clone K1, CTX-M-16 + OXA-1
  MIC: 0.125 µg/mL
K. pneumoniae; K. pneumoniae Tunisie clone K4, CTX-M-15 + TEM-1 + OXA-1
  MIC: 0.125 µg/mL
K. pneumoniae; Klebsiella pneumoniae
  MIC: 0.125 µg/mL
K. pneumoniae; Klebsiella pneumoniae, 24 h, K. pneumoniae 60, SHV-2 + TEM-2 + PER, read-out: MIC
  MIC: 0.06 µg/mL
K. pneumoniae; Klebsiella pneumoniae, 24 h, K. pneumoniae 157, SHV-5 + TEM-26, read-out: MIC
  MIC: ≤ 0.03 µg/mL
K. pneumoniae; Klebsiella pneumoniae, 24 h, K. pneumoniae 181, SHV-5 + TEM-10, read-out: MIC
  MIC: 4 µg/mL
K. pneumoniae; Klebsiella pneumoniae, 24 h, K. pneumoniae 238, SHV-2 + TEM-12 + CTX-M-2, read-out: MIC
  MIC: ≤ 0.03 µg/mL
K. pneumoniae; Klebsiella pneumoniae, 24 h, K. pneumoniae 253, SHV-2 + TEM-12 + CTX-M-2, read-out: MIC
  MIC: 0.06 µg/mL
K. pneumoniae; Klebsiella pneumoniae, 24 h, K. pneumoniae 427, SHV-1 + TEM-1B + CTX-M-3, read-out: MIC
  MIC: 0.06 µg/mL
K. pneumoniae; Klebsiella pneumoniae, 24 h, K. pneumoniae 441, SHV-1 + TEM-2 + PER, read-out: MIC
  MIC: 0.06 µg/mL
K. pneumoniae; Klebsiella pneumoniae, 24 h, K. pneumoniae 449, SHV-1 + TEM-2 + PER, read-out: MIC
  MIC: ≤ 0.03 µg/mL
K. pneumoniae; Klebsiella pneumoniae, 24 h, K. pneumoniae 465, TEM-1B + CTX-M-2, read-out: MIC
  MIC: 0.25 µg/mL
K. pneumoniae; Klebsiella pneumoniae, 24 h, K. pneumoniae KOL, MOX-2 + SHV-5 + TEM-1, read-out: MIC
  MIC: 0.06 µg/mL
K. pneumoniae; Klebsiella pneumoniae, 24 h, K. pneumoniae Patient 1BHR, VIM-4 + CTX-M-15 = CMY-4 + TEM-1, read-out: MIC
  MIC: 16 µg/mL
K. pneumoniae; Klebsiella pneumoniae, 24 h, K. pneumoniae Patient F, VIM-1 + SHV-5, read-out: MIC
  MIC: > 32 µg/mL
K. pneumoniae; Klebsiella pneumoniae, 24 h, K. pneumoniae SLK54, ACC-1 + TEM-1, read-out: MIC
  MIC: 0.06 µg/mL
K. pneumoniae; Klebsiella pneumoniae, 24 h, K. pneumoniae TN58467, DHA-1 + SHV-2a + TEM-1, read-out: MIC
  MIC: 0.25 µg/mL
K. pneumoniae; Klebsiella pneumoniae, ATCC700603, K. pneumoniae ATCC 700603, SHV-18, read-out: MIC
  MIC: 0.06 µg/mL
K. pneumoniae; Klebsiella pneumoniae, K. pneumoniae 26, SHV-5, read-out: MIC
  MIC: ≤ 0.03 µg/mL
K. pneumoniae; Klebsiella pneumoniae, K. pneumoniae CL5761, KPC-3, read-out: MIC
  MIC: > 32 µg/mL
K. pneumoniae; Klebsiella pneumoniae, K. pneumoniae CL5762, KPC-3, read-out: MIC
  MIC: > 32 µg/mL
K. pneumoniae; Klebsiella pneumoniae, K. pneumoniae CL5763, KPC-3, read-out: MIC
  MIC: > 32 µg/mL
K. pneumoniae; Klebsiella pneumoniae, K. pneumoniae VA8, KPC-3, read-out: MIC
  MIC: ≤ 0.03 µg/mL
K. pneumoniae; Klebsiella pneumoniae, K. pneumoniae VAKP, KPC-2, read-out: MIC
  MIC: 32 µg/mL
K. pneumoniae; Klebsiella pneumoniae, K. pneumoniae YC, KPC-2, read-out: MIC
  MIC: 32 µg/mL
K. oxytoca; K. oxytoca 1431, TEM-129
  MIC: 0.06 µg/mL
K. oxytoca; K. oxytoca 16944, OXY-2, TEM-1
  MIC: 0.06 µg/mL
C. freundii
  MIC: 0.125 µg/mL
C. freundii; 24 h, C. freundii (no alias), AmpC + TEM-1, read-out: MIC
  MIC: 0.06 µg/mL
C. freundii; C. freundii (no alias, table row r121), AmpC, read-out: MIC
  MIC: 0.25 µg/mL
C. freundii; C. freundii (no alias, table row r122), AmpC, read-out: MIC
  MIC: 0.06 µg/mL
C. freundii; C. freundii (no alias, table row r125), AmpC, read-out: MIC
  MIC: 0.06 µg/mL
